Experiment: Inhibition of HIV integrase-mediated strand transfer activity
Parameters: species or system Human immunodeficiency virus

Compound	IC50 [µM]
O=C(O)/C(O)=C/C(=O)N1CCc2ccccc21	0.2
O=C(/C=C(\O)C(=O)O)Nc1ccc(Cl)c(Cl)c1	0.16
O=C(/C=C(\O)C(=O)O)Nc1ccc(Cl)cc1	5.6
O=C(O)/C(O)=C/C(=O)N1CCc2cc(F)ccc21	0.23
O=C(O)/C(O)=C/c1nc2ccc(Cl)cc2o1	> 100
O=C(/C=C(\O)C(=O)O)Nc1ccc(F)c(F)c1	2.4
O=C(/C=C(\O)C(=O)O)Nc1cccc(Cl)c1	0.7
CN(C(=O)/C=C(\O)C(=O)O)c1cccc(Cl)c1	> 125
O=C(/C=C(\O)C(=O)O)Nc1ccc(F)cc1	13.4
O=C(/C=C(\O)C(=O)O)Cc1ccccc1	> 200
O=C(O)/C(O)=C/C(=O)N1CCc2cc(Cl)c(Cl)cc21	0.02

— ChEMBL document CHEMBL1139734, “Exploration of the diketoacid integrase inhibitor chemotype leading to the discovery of the anilide-ketoacids chemotype” (Bioorg Med Chem Lett, 2006)
